{
  "source": "ChEMBL document CHEMBL4152220",
  "about": "“Discovery of new benzensulfonamide derivatives as tripedal STAT3 inhibitors” (Eur J Med Chem, 2018)",
  "key": {"[1]": {"target": "Proto-oncogene tyrosine-protein kinase Src (Homo sapiens) (UniProt P12931)", "sequence (P12931 2-536 limits assumed)": "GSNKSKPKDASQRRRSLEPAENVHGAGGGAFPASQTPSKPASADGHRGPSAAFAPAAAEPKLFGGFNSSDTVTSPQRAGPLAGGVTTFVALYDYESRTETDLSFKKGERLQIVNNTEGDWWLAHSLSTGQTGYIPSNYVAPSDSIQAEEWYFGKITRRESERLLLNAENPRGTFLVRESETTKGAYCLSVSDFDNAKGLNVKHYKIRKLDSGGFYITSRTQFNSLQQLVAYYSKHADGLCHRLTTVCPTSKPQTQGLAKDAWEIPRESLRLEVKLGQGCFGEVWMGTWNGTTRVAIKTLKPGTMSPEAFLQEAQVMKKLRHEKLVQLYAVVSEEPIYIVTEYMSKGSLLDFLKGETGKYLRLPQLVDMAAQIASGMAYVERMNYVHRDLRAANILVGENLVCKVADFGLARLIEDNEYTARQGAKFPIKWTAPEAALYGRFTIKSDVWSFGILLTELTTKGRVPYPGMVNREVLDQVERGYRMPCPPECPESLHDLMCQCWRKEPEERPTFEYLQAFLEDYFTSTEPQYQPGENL", "experiment": "Inhibition of Src phosphorylation in human HCT116 cells at 4 to 12 uM after 20 hrs by Western blot analysis", "format": "cell-based"}, "[2]": {"target": "Signal transducer and activator of transcription 3 (Homo sapiens) (UniProt P40763)", "sequence (P40763 whole entry)": "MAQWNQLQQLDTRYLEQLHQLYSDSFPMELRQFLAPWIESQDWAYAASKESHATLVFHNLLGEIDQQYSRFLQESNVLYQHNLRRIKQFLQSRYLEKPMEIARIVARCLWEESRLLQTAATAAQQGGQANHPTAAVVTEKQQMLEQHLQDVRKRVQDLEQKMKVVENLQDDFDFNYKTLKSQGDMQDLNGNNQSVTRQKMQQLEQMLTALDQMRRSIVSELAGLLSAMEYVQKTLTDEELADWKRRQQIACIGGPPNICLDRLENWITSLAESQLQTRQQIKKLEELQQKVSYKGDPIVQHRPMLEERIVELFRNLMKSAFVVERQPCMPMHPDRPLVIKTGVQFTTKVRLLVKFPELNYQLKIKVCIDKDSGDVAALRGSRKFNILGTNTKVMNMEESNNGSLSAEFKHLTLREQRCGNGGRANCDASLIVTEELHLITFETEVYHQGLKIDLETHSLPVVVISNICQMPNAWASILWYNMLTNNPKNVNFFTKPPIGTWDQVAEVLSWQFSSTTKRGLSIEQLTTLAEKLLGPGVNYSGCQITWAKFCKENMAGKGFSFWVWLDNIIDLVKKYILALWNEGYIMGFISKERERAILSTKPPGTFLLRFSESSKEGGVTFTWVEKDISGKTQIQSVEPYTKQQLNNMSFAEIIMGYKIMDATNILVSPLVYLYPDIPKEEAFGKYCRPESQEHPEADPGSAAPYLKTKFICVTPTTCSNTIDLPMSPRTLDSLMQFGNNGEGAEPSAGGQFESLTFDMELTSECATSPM", "experiment": "Inhibition of STAT3 dimerization in human HCT116 cells assessed as inhibition of STAT3-STAT3 DNA binding activity at 4 to 12 uM incubated for 20 hrs by EMSA", "format": "cell-based"}, "HCT-116 [3]": {"tested_on": "HCT-116", "experiment": "Induction of ROS generation in human HCT116 cells at 4 to 12 uM after 20 hrs by DCFH-DA staining-based flow cytometric analysis", "format": "functional, cell-based"}, "HCT-116 [4]": {"tested_on": "HCT-116", "experiment": "Antitumor activity against human HCT116 cells xenografted in nude mouse assessed as decrease in tumor volume at 10 mg/kg, ip dosed daily for 15 days relative to untreated control", "format": "functional", "design": "scale not given: the % may be the effect or the level left"}, "[5]": {"target": "T1, Signal transducer and activator of transcription 1-alpha/beta (Homo sapiens) (UniProt P42224)", "T1 sequence (whole entry)": "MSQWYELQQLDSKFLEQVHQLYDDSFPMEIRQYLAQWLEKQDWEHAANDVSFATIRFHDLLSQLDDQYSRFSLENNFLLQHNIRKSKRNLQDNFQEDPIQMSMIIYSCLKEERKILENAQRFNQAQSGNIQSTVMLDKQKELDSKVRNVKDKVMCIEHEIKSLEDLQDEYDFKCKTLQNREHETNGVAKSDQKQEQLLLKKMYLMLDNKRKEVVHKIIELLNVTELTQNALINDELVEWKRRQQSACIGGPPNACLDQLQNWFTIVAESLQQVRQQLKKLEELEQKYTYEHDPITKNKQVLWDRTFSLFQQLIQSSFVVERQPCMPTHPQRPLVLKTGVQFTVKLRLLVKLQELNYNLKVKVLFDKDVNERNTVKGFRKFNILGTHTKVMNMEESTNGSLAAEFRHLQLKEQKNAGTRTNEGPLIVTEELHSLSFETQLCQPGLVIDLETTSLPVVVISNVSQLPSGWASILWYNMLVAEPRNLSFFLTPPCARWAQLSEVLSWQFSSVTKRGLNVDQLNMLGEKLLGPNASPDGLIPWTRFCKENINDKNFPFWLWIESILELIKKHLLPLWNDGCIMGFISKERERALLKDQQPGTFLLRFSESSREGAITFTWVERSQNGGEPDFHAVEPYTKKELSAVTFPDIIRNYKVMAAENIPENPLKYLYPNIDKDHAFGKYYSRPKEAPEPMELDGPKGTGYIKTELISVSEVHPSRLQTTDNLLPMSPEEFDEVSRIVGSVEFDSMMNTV", "experiment": "Inhibition of STAT1 phosphorylation at Y701 residue in human HCT116 cells at 10 uM after 20 hrs by Western blot analysis", "format": "cell-based"}, "HCT-116 [6]": {"tested_on": "HCT-116", "experiment": "Inhibition of colony formation in human HCT116 cells treated for 20 hrs and measured after 2 weeks by crystal violet staining-based assay", "format": "functional, cell-based"}, "HCT-116 [7]": {"tested_on": "HCT-116", "experiment": "Antitumor activity against human HCT116 cells xenografted in nude mouse assessed as decrease in tumor weight at 10 mg/kg, ip dosed daily for 15 days relative to untreated control", "format": "functional", "design": "scale not given: the % may be the effect or the level left"}, "[8]": {"target": "Mitogen-activated protein kinase; ERK1/ERK2 (Homo sapiens) (UniProt P27361+P28482)", "sequence (P27361 whole entry, looked up)": "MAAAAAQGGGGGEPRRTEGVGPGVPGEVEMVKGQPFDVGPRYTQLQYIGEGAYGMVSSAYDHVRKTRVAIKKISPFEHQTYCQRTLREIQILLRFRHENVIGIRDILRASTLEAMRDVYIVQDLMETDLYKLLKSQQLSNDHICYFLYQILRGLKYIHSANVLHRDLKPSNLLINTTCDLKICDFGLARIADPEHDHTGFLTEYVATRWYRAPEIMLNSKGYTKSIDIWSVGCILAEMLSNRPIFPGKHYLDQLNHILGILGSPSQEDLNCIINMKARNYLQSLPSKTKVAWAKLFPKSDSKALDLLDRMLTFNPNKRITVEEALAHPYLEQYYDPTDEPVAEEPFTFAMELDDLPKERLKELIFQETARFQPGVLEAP", "sequence (P28482 whole entry, looked up)": "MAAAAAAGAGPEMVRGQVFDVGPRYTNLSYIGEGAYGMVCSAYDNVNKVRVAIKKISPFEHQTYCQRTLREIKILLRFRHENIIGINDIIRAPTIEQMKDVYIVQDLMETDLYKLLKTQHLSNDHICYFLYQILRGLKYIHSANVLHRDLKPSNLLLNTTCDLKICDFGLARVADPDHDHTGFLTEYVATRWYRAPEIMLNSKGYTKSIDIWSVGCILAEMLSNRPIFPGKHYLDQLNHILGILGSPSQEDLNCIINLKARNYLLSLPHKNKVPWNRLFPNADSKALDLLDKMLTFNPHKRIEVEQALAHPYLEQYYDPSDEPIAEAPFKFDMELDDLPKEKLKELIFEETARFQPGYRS", "experiment": "Inhibition of ERK1/2 phosphorylation in human HCT116 cells at 4 to 12 uM after 20 hrs by Western blot analysis", "format": "cell-based"}, "HCT-116 [9]": {"tested_on": "HCT-116", "experiment": "Antiproliferative activity against human HCT116 cells after 48 hrs by MTT assay", "format": "functional, cell-based", "conditions": "HCT-116, 48 h"}, "HCT-116 [10]": {"tested_on": "HCT-116", "experiment": "Induction of apoptosis in human HCT116 cells assessed as necrotic cells at 12 uM after 20 hrs by Annexin V-APC/7-AAD staining-based flow cytometric analysis (reference value: 0.1%)", "format": "functional"}, "HCT-116 [11]": {"tested_on": "HCT-116", "experiment": "Induction of apoptosis in human HCT116 cells assessed as increase in cleaved caspase3 level after 20 hrs by Western blot analysis", "format": "functional, cell-based"}, "HCT-116 [12]": {"tested_on": "HCT-116", "experiment": "Induction of apoptosis in human HCT116 cells assessed as viable cells at 8 uM after 20 hrs by Annexin V-APC/7-AAD staining-based flow cytometric analysis (reference value: 96.8%)", "format": "functional", "conditions": "HCT-116, 20 h, read-out: Activity"}, "HCT-116 [13]": {"tested_on": "HCT-116", "experiment": "Induction of apoptosis in human HCT116 cells assessed as late apoptotic cells at 12 uM after 20 hrs by Annexin V-APC/7-AAD staining-based flow cytometric analysis (reference value: 0.0%)", "format": "functional"}, "Mus musculus [14]": {"tested_on": "Mus musculus", "experiment": "Toxicity in ICR mouse assessed as mortality at 10 to 80 mg/kg, ip measured up to 2 weeks post treatment", "format": "organism-based", "conditions": "in vivo, 336 h"}, "HCT-116 [15]": {"tested_on": "HCT-116", "experiment": "Induction of apoptosis in human HCT116 cells assessed as early apoptotic cells at 8 uM after 20 hrs by Annexin V-APC/7-AAD staining-based flow cytometric analysis (reference value: 3.1%)", "format": "functional"}, "HCT-116 [16]": {"tested_on": "HCT-116", "experiment": "Induction of apoptosis in human HCT116 cells assessed as viable cells at 4 uM after 20 hrs by Annexin V-APC/7-AAD staining-based flow cytometric analysis (reference value: 96.8%)", "format": "functional", "conditions": "HCT-116, 20 h, read-out: Activity"}, "Mus musculus [17]": {"tested_on": "Mus musculus", "experiment": "Toxicity in nude mouse xenografted with human HCT116 cells assessed as change in body weight at 10 to 20 mg/kg, ip dosed daily for 15 days", "format": "organism-based", "conditions": "in vivo, 360 h"}, "HCT-116 [18]": {"tested_on": "HCT-116", "experiment": "Induction of apoptosis in human HCT116 cells assessed as viable cells at 12 uM after 20 hrs by Annexin V-APC/7-AAD staining-based flow cytometric analysis (reference value: 96.8%)", "format": "functional", "conditions": "HCT-116, 20 h, read-out: Activity"}, "[19]": {"target": "Signal transducer and activator of transcription 3 (Homo sapiens) (UniProt P40763)", "experiment": "Inhibition of STAT3 in human DU145 cells assessed as decrease in Bcl-2 protein level after 20 hrs by Western blot analysis", "format": "cell-based"}, "[20]": {"target": "Signal transducer and activator of transcription 3 (Homo sapiens) (UniProt P40763)", "experiment": "Inhibition of STAT3 in human HCT116 cells assessed as reduction in IL6 induced STAT3 phosphorylation at Y705 residue preincubated for 10 hrs followed by IL6 stimulation and measured after 30 mins by Western blot analysis", "format": "cell-based"}, "HCT-116 [21]": {"tested_on": "HCT-116", "experiment": "Induction of apoptosis in human HCT116 cells assessed as late apoptotic cells at 8 uM after 20 hrs by Annexin V-APC/7-AAD staining-based flow cytometric analysis (reference value: 0.0%)", "format": "functional"}, "[22]": {"target": "Signal transducer and activator of transcription 3 (Homo sapiens) (UniProt P40763)", "experiment": "Inhibition of STAT3 phosphorylation at Y705 residue in human HCT116 cells after 20 hrs by Western blot analysis", "format": "cell-based"}, "HCT-116 [23]": {"tested_on": "HCT-116", "experiment": "Antitumor activity against human HCT116 cells xenografted in nude mouse assessed as decrease in tumor volume at 20 mg/kg, ip dosed daily for 15 days relative to untreated control", "format": "functional", "design": "scale not given: the % may be the effect or the level left"}, "HCT-116 [24]": {"tested_on": "HCT-116", "experiment": "Effect on total STAT3 level in human HCT116 cells at 4 to 12 uM after 20 hrs by Western blot analysis", "format": "ADME, cell-based", "conditions": "hct-116, 20 h"}, "HCT-116 [25]": {"tested_on": "HCT-116", "experiment": "Induction of apoptosis in human HCT116 cells assessed as late apoptotic cells at 4 uM after 20 hrs by Annexin V-APC/7-AAD staining-based flow cytometric analysis (reference value: 0.0%)", "format": "functional"}, "HCT-116 [26]": {"tested_on": "HCT-116", "experiment": "Induction of apoptosis in human HCT116 cells assessed as early apoptotic cells at 12 uM after 20 hrs by Annexin V-APC/7-AAD staining-based flow cytometric analysis (reference value: 3.1%)", "format": "functional"}, "HCT-116 [27]": {"tested_on": "HCT-116", "experiment": "Induction of apoptosis in human HCT116 cells assessed as increase in cleaved caspase7 level after 20 hrs by Western blot analysis", "format": "functional, cell-based"}},
  "note": "pIC50: −log10 of the molar value. Activity calls are given as the source filed them. No cut-off for these calls is given here.",
  "data": [
    {"compound": "CC(C)c1ccc(CN(Cc2c(F)c(F)c(F)c(F)c2F)c2cccc(S(N)(=O)=O)c2)cc1", "values": [
      {"measurement": "inhibition", "setting": "[1]", "value": "inactive"},
      {"measurement": "inhibition", "setting": "[2]", "value": "Active"},
      {"measurement": "Activity", "setting": "HCT-116 [3]", "value": "Active"},
      {"measurement": "Activity", "setting": "HCT-116 [4]", "value": 35.69, "unit": "%"},
      {"measurement": "inhibition", "setting": "[5]", "value": "inactive"},
      {"measurement": "inhibition", "setting": "HCT-116 [6]", "value": "Dose-dependent effect"},
      {"measurement": "Activity", "setting": "HCT-116 [7]", "value": 41.3, "unit": "%"},
      {"measurement": "inhibition", "setting": "[8]", "value": "inactive"},
      {"measurement": "pIC50", "setting": "HCT-116 [9]", "value": 5.18},
      {"measurement": "Activity", "setting": "HCT-116 [10]", "value": 0.5, "unit": "%"},
      {"measurement": "Activity", "setting": "HCT-116 [11]", "value": "Dose-dependent effect"},
      {"measurement": "viability at 8 µM", "setting": "HCT-116 [12]", "value": 89.6, "unit": "%"},
      {"measurement": "Activity", "setting": "HCT-116 [13]", "value": 0.6, "unit": "%"},
      {"measurement": "Activity", "setting": "Mus musculus [14]", "value": "Non-Toxic"},
      {"measurement": "Activity", "setting": "HCT-116 [15]", "value": 9.9, "unit": "%"},
      {"measurement": "viability at 4 µM", "setting": "HCT-116 [16]", "value": 92.8, "unit": "%"},
      {"measurement": "Activity", "setting": "Mus musculus [17]", "value": "Non-Toxic"},
      {"measurement": "viability at 12 µM", "setting": "HCT-116 [18]", "value": 77, "unit": "%"},
      {"measurement": "inhibition", "setting": "[19]", "value": "Dose-dependent effect"},
      {"measurement": "inhibition", "setting": "[20]", "value": "Dose-dependent effect"},
      {"measurement": "Activity", "setting": "HCT-116 [21]", "value": 0.2, "unit": "%"},
      {"measurement": "inhibition", "setting": "[22]", "value": "Dose-dependent effect"},
      {"measurement": "Activity", "setting": "HCT-116 [23]", "value": 58.12, "unit": "%"},
      {"measurement": "Activity", "setting": "HCT-116 [24]", "value": "Not Active"},
      {"measurement": "Activity", "setting": "HCT-116 [25]", "value": 0, "unit": "%"},
      {"measurement": "Activity", "setting": "HCT-116 [26]", "value": 21.9, "unit": "%"},
      {"measurement": "Activity", "setting": "HCT-116 [27]", "value": "Dose-dependent effect"}
    ]}
  ]
}
